{
  "source": "ChEMBL document CHEMBL2440023",
  "about": "“Biological activity of 3-chloro-azetidin-2-one derivatives having interesting antiproliferative activity on human breast cancer cell lines” (Bioorg Med Chem Lett, 2013)",
  "key": {"[1]": {"system": "NIH3T3", "experiment": "Cytotoxicity against mouse 3T3 cells assessed as cell viability at 5 to 20 uM after 72 hrs by MTT assay", "format": "cell-based", "details": "nih3t3, 72 h"}, "[2]": {"system": "SK-BR-3", "experiment": "Cytotoxicity against ER-negative human SKBR3 cells assessed as growth inhibition at 20 uM after 72 hrs by MTT assay", "format": "functional, cell-based"}, "[3]": {"system": "MCF7", "experiment": "Cytotoxicity against ER-positive human MCF7 cells assessed as growth inhibition at 10 to 20 uM after 72 hrs by MTT assay", "format": "functional, cell-based"}, "[4]": {"experiment": "Stability of the compound in simulated gastric/intestinal fluid assessed as compound remaining at 10 mM after 6 hrs by UV/Vis spectroscopic analysis in presence of porcine pepsin and pancreatin relative to control", "format": "physicochemical", "details": "pig; read-out: Stability"}, "[5]": {"system": "SK-BR-3", "experiment": "Cytotoxicity against ER-negative human SKBR3 cells assessed as growth inhibition after 72 hrs by MTT assay", "format": "functional, cell-based", "details": "for IC50: SK-BR-3, 72 h"}, "[6]": {"system": "MCF7", "experiment": "Cytotoxicity against ER-positive human MCF7 cells assessed as growth inhibition after 72 hrs by MTT assay", "format": "functional, cell-based", "details": "for IC50: MCF7, 72 h"}, "[7]": {"system": "SK-BR-3", "experiment": "Cytotoxicity against ER-negative human SKBR3 cells assessed as growth inhibition at 10 to 20 uM after 72 hrs by MTT assay", "format": "functional, cell-based"}, "[8]": {"system": "MCF7", "experiment": "Cytotoxicity against ER-positive human MCF7 cells assessed as growth inhibition at 1 uM after 72 hrs by MTT assay", "format": "functional, cell-based"}, "[9]": {"system": "MCF7", "experiment": "Cytotoxicity against ER-positive human MCF7 cells assessed as growth inhibition at 20 uM after 72 hrs by MTT assay", "format": "functional, cell-based"}},
  "note": "Activity calls are given as the source filed them. The calls are words filed in the database; no cut-off is given here.",
  "data": [
    {"smiles": "Cc1ccc(C2C(Cl)C(=O)N2c2ccc(C)cc2)cc1", "note": "(stereo unspecified)", "values": [
      {"measurement": "Activity", "setting": "[1]", "result": "Non-toxic"},
      {"measurement": "growth inhibition (GI)", "setting": "[2]", "result": "Active"},
      {"measurement": "growth inhibition (GI)", "setting": "[3]", "result": "inactive"},
      {"measurement": "remaining at 6 h, 10000 µM", "setting": "[4]", "result": 79, "unit": "%"}
    ]},
    {"smiles": "O=C1C(Cl)C(c2ccc(Cl)cc2)N1c1ccc(I)cc1", "note": "(stereo unspecified)", "values": [
      {"measurement": "Activity", "setting": "[1]", "result": "Non-toxic"},
      {"measurement": "growth inhibition (GI)", "setting": "[5]", "result": "Dose-dependent effect"},
      {"measurement": "IC50", "setting": "[5]", "result": 9.51, "unit": "µM"},
      {"measurement": "growth inhibition (GI)", "setting": "[6]", "result": "Dose-dependent effect"},
      {"measurement": "IC50", "setting": "[6]", "result": 11.8, "unit": "µM"},
      {"measurement": "remaining at 6 h, 10000 µM", "setting": "[4]", "result": 70, "unit": "%"}
    ]},
    {"smiles": "O=C1C(Cl)C(c2ccccc2)N1c1ccccc1", "note": "(stereo unspecified)", "values": [
      {"measurement": "Activity", "setting": "[1]", "result": "Non-toxic"},
      {"measurement": "growth inhibition (GI)", "setting": "[7]", "result": "Active"},
      {"measurement": "growth inhibition (GI)", "setting": "[8]", "result": "inactive"},
      {"measurement": "remaining at 6 h, 10000 µM", "setting": "[4]", "result": 78, "unit": "%"}
    ]},
    {"smiles": "O=C1C(Cl)C(c2ccc(Br)cc2)N1c1ccc(Br)cc1", "note": "(stereo unspecified)", "values": [
      {"measurement": "Activity", "setting": "[1]", "result": "Non-toxic"},
      {"measurement": "growth inhibition (GI)", "setting": "[5]", "result": "Dose-dependent effect"},
      {"measurement": "IC50", "setting": "[5]", "result": 11.1, "unit": "µM"},
      {"measurement": "growth inhibition (GI)", "setting": "[6]", "result": "Dose-dependent effect"},
      {"measurement": "IC50", "setting": "[6]", "result": 16.7, "unit": "µM"},
      {"measurement": "remaining at 6 h, 10000 µM", "setting": "[4]", "result": 87, "unit": "%"}
    ]},
    {"smiles": "O=C1C(Cl)C(c2ccccc2)N1c1ccc(Cl)cc1", "note": "(stereo unspecified)", "values": [
      {"measurement": "Activity", "setting": "[1]", "result": "Non-toxic"},
      {"measurement": "growth inhibition (GI)", "setting": "[7]", "result": "Active"},
      {"measurement": "growth inhibition (GI)", "setting": "[6]", "result": "Dose-dependent effect"},
      {"measurement": "remaining at 6 h, 10000 µM", "setting": "[4]", "result": 80, "unit": "%"}
    ]},
    {"smiles": "Oc1ccc(/C=C\\c2cc(O)cc(O)c2)cc1", "note": "[CIS-RESVERATROL]", "values": [
      {"measurement": "IC50", "setting": "[5]", "result": 41.2, "unit": "µM"},
      {"measurement": "IC50", "setting": "[6]", "result": 28.4, "unit": "µM"},
      {"measurement": "remaining at 6 h, 10000 µM", "setting": "[4]", "result": 31, "unit": "%"}
    ]},
    {"smiles": "O=C1C(Cl)C(c2ccc(Cl)cc2)N1c1ccccc1", "note": "(stereo unspecified)", "values": [
      {"measurement": "Activity", "setting": "[1]", "result": "Non-toxic"},
      {"measurement": "growth inhibition (GI)", "setting": "[7]", "result": "Active"},
      {"measurement": "growth inhibition (GI)", "setting": "[9]", "result": "Active"},
      {"measurement": "remaining at 6 h, 10000 µM", "setting": "[4]", "result": 83, "unit": "%"}
    ]}
  ]
}
